# Measured values reported in patent US11850252B2, “Use of nor-ursodeoxycholic acid for reducing liver fat” (Dr. Falk Pharma GmbH, priority 2017, dated 2023).
# Values joined by “and” are separate entries in the source; they are usually repeats but may differ in a detail not shown here. Equal values may be shown once.
# Assays:
# [1] = system: Patients with a clinical diagnosis of non-alcoholic hepatic steatosis; assay: Liver enzymes (serum ALT, AST, GGT, AP, bilirubin), phase II clinical trial; type: in vivo, human;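 on Serum bilirubin, Mean ± SD: unit mg/dL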
# Method: (§1) A double-blinded, randomized, placebo-controlled phase II clinical trial was conducted as described in the following.
# (§2) Patients with a clinical diagnosis of non-alcoholic hepatic steatosis were randomized to a 12-week treatment period and a 4-week follow-up. Patients were divided into three groups. The first groups received 1,500 mg Nor-UDCA per day (6 capsules with 250 mg Nor-UDCA in each capsule). The second group received 500 mg Nor-UDCA per day (2 capsules with 250 mg Nor-UDCA in each capsule and 4 capsules with 250 mg placebo in each capsule). The third group received 6 capsules with 250 mg placebo in each capsule.
# The effects of Nor-UDCA on liver enzyme values have been assessed with respect to the courses of ALT, AST, GGT, AP and serum bilirubin. In addition, treatment effects with respect to pre-defined outcome criteria based on the upper limits of normal (ULN) of ALT, AST and GGT were examined.
# The serum levels of ALT, AST, GGT, AP and serum bilirubin were determined by established standard laboratory methods.
# [2] = system: Patients with a clinical diagnosis of non-alcoholic hepatic steatosis; assay: Cytokeratin 18 (M30, M65 fragments) in the course of the study; type: in vivo, human; conditions: for mean value of Cytokeratin 18 (M30 fragment) / mean value of Cytokeratin 18 (M65 fragment): V2 baseline
# Excerpt: In another embodiment, the patient to be treated has a serum level of cytokeratin 18 (M65) of less than 750 U/ml, or less than 600 U/ml, or less than 500 U/ml, or less than 400 U/ml, or less than 300 U/ml or even less than 250 U/ml. The level of the M65 fragment of cytokeratin-18 can be determined by known methods, e.g. by an enzyme-linked immunosorbent assay (ELISA)
# In another embodiment, the patient to be treated has a serum level of cytokeratin 18 (M30) of less than 500 U/ml, or less than 400 U/ml, or less than 300 U/ml, or less than 200 U/ml, or less than 150 U/ml. The level of the M30 fragment of cytokeratin-18 can be determined by known methods, e.g. by an ELISA.
# as §1, §2
# [3] = N1500 (1,500 mg/day), V2 baseline week 0
# [4] = N1500 (1,500 mg/day), V3 week 2
# [5] = N1500 (1,500 mg/day), V4 week 4
# [6] = N1500 (1,500 mg/day), V5 week 8
# [7] = N1500 (1,500 mg/day), V6 (LOCF)
# [8] = N1500 (1,500 mg/day), V6 (LOCF)-V2
# [9] = N1500 (1,500 mg/day), V6 week 12
smiles,measurement,setting,value
"CC(CC(=O)O)[C@H]1CCC2[C@H]3C(CC[C@@]21C)[C@@]1(C)CCC(O)C[C@H]1C[C@@H]3O (stereo partly shown) [Nor-UDCA, 24-nor-ursodeoxycholic acid]",proportion of patients fulfilling criterion AST<1.5 ULN,"[1]; N1500 (1,500 mg/day)",75.0%
same,proportion of patients fulfilling criterion AST<ULN,"[1]; N1500 (1,500 mg/day)",54.5%
same,"proportion of patients, criterion GGT ULN","[1]; N1500 (1,500 mg/day)",31.0%
same,GGT,"[1]; N1500 (1,500 mg/day), V2",178.8 U/I
same,"ALT, Mean ± SD",[1]; [3],78.6 ± 34.2 U/l
same,"ALT/AST, Mean ± SD",[1]; [3],1.68 ± 0.53
same,"AP, Mean ± SD",[1]; [3],92.0 ± 36.6 U/l
same,"AST, Mean ± SD",[1]; [3],49.3 ± 25.1 U/l
same,"GGT, Mean ± SD",[1]; [3],178.8 ± 205.6 U/l
same,"Serum bilirubin, Mean ± SD",[1]; [3],0.61 ± 0.32 mg/dL
same,change of AST,"[1]; N1500 (1,500 mg/day), V2 to V6-LOCF",−8.7 U/I
same,"ALT, Mean ± SD",[1]; [4],72.8 ± 33.1 U/l
same,"ALT/AST, Mean ± SD",[1]; [4],1.66 ± 0.41
same,"AP, Mean ± SD",[1]; [4],95.4 ± 40.1 U/l
same,"AST, Mean ± SD",[1]; [4],43.7 ± 15.7 U/l
same,"GGT, Mean ± SD",[1]; [4],170.1 ± 217.9 U/l
same,"Serum bilirubin, Mean ± SD",[1]; [4],0.52 ± 0.26 mg/dL
same,"ALT, Mean ± SD",[1]; [5],62.6 ± 24.7 U/l
same,"ALT/AST, Mean ± SD",[1]; [5],1.53 ± 0.41
same,"AP, Mean ± SD",[1]; [5],90.9 ± 32.0 U/l
same,"AST, Mean ± SD",[1]; [5],42.6 ± 19.9 U/l
same,"GGT, Mean ± SD",[1]; [5],128.5 ± 126.1 U/l
same,"Serum bilirubin, Mean ± SD",[1]; [5],0.53 ± 0.26 mg/dL
same,"ALT, Mean ± SD",[1]; [6],62.0 ± 27.9 U/l
same,"ALT/AST, Mean ± SD",[1]; [6],1.54 ± 0.34
same,"AP, Mean ± SD",[1]; [6],91.1 ± 33.3 U/l
same,"AST, Mean ± SD",[1]; [6],40.5 ± 16.3 U/l
same,"GGT, Mean ± SD",[1]; [6],111.5 ± 112.7 U/l
same,"Serum bilirubin, Mean ± SD",[1]; [6],0.54 ± 0.28 mg/dL
same,"ALT, Mean ± SD",[1]; [7],61.8 ± 28.3 U/l
same,"ALT/AST, Mean ± SD",[1]; [7],1.54 ± 0.34
same,"AP, Mean ± SD",[1]; [7],91.8 ± 32.1 U/l
same,"AST, Mean ± SD",[1]; [7],40.8 ± 19.1 U/l
same,"GGT, Mean ± SD",[1]; [7],111.7 ± 116.3 U/l
same,"Serum bilirubin, Mean ± SD",[1]; [7],0.57 ± 0.31 mg/dL
same,"ALT change, Mean ± SD",[1]; [8],−17.2 ± 23.3 U/l
same,"ALT/AST ratio change, Mean ± SD",[1]; [8],−0.14 and −0.14 ± 0.42
same,"AST change, Mean ± SD",[1]; [8],−8.7 ± 13.6 U/l
same,"Serum bilirubin change, Mean ± SD",[1]; [8],-0.03 ± 0.20 mg/dL
same,GGT,"[1]; N1500 (1,500 mg/day), V6-LOCF",111.7 U/I
same,"ALT, Mean ± SD",[1]; [9],62.8 ± 29.1 U/l
same,"ALT/AST, Mean ± SD",[1]; [9],1.55 ± 0.34
same,"AP, Mean ± SD",[1]; [9],92.9 ± 31.3 U/l
same,"AST, Mean ± SD",[1]; [9],41.3 ± 19.8 U/l
same,"GGT, Mean ± SD",[1]; [9],109.6 ± 115.8 U/l
same,"Serum bilirubin, Mean ± SD",[1]; [9],0.56 ± 0.32 mg/dL
same,patients fulfilling outcome criterion ALT≤0.8 ULN,"[1]; N1500 (1,500 mg/day), patients with ALT>0.8 at baseline",17.5%
same,patients fulfilling outcome criterion ALT<ULN,"[1]; N1500 (1,500 mg/day), patients with ALT>1.0 at baseline",35.7%
same,patients fulfilling outcome criterion ALT<1.5 ULN,"[1]; N1500 (1,500 mg/day), patients with ALT>1.5 at baseline",53.1%
same,"differences in the course of AP and serum bilirubin values between N1500, N500 and Placebo",[1]; N1500 and N500 versus Placebo,no relevant differences
same,change of mean Cytokeratin 18 (M30 fragment) during the study,[2]; N500 (500 mg/day),−34.4 U/I
same,change of mean Cytokeratin 18 (M65 fragment) during the study,[2]; N500 (500 mg/day),−106.0 U/I
same,mean value of Cytokeratin 18 (M30 fragment),[2]; N500 (500 mg/day),389.4 U/I
same,mean value of Cytokeratin 18 (M65 fragment),[2]; N500 (500 mg/day),590.2 U/I
same,change of mean Cytokeratin 18 (M30 fragment) during the study,"[2]; N1500 (1,500 mg/day)",−30.3 U/I
same,change of mean Cytokeratin 18 (M65 fragment) during the study,"[2]; N1500 (1,500 mg/day)",−80.6 U/I
same,mean value of Cytokeratin 18 (M30 fragment),"[2]; N1500 (1,500 mg/day)",333.7 U/I
same,mean value of Cytokeratin 18 (M65 fragment),"[2]; N1500 (1,500 mg/day)",519.9 U/I
